According to patent US8455448B2, “Myostatin isoform” (Myostin Therapeutics Pty Ltd, priority 2004, dated 2013):

B1: roMSV65: 65 amino acid C-terminal peptide of ovine MSV (SEQ ID NO: 49) expressed as recombinant protein in E. coli (protein)
chain: VHFYTPPYGQWIFHKERKIIFLEVYIQFCSILGEAVFKRQSKSIHFCQNFKIIACLCNTAAFRMK
modifications: Ovis aries

Tests used:
[1] = tested on: myostatin mRNA expression; test: Myostatin mRNA expression in C2C12 murine myoblasts (real-time PCR); type: cell-based; details: 10 μg/ml, FIG. 14
Method: C2C12 myoblasts were seeded in 10 cm diameter tissue culture plates (Nunc, Roskilde, Denmark) at a cell density of 3000 cells per cm^2 in 10 ml of Dulbecco's modified Eagle's medium (DMEM, Invitrogen, California) supplemented with foetal bovine serum (FBS, 10% v/v, Invitrogen), penicillin (1×10^5 IU/I, Sigma, St Louis, Mo., USA) and streptomycin (100 mg/l, Sigma) buffered with NaHCO3 containing phenol red (7.22 nmol/l) as a pH indicator, and incubated overnight at 37° C. with 5% CO2. For a set of eight plates (chronic treatment, designated “A”) the medium was replaced with the test medium: DMEM with 2.5% FBS supplemented with 0 or 10 μg/ml oMSV47 (n=4). The plates “A” were then incubated at 37° C. with 5% CO2 for 48 hours. […] RNA was re-suspended in diethyl pyrocarbonate-treated water and the total RNA concentration determined by measuring absorbance at 260 nm (Nanodrop Spectrophotometer, Delaware, USA). […] The following experimental run protocol was used: denaturation (95° C. for 5 min), amplification (95° C. for 5 sec, 62° C. for 10 sec, 72° C. for 20 sec, with a single fluorescence measurement, 50 cycles), melt curve (60-95° C. with a heating rate of 0.1° C. per sec with continuous fluorescence measurement) on a LightCycler 2.0 PCR machine (Roche Diagnostics). Arbitrary concentrations were calculated by the Lightcycler software using a standard curve (Roche Diagnostics).

primary ovine myoblasts = test: Proliferation assay of primary ovine myoblasts (methylene blue); type: cell-based; details: roMSV65 0 to 10 μg/ml, 72 h, FIG. 3B
Method: Myoblasts were seeded in 96-well tissue culture plates (Nunc, Roskilde, Denmark) at a cell density of 1000 cells per well in 200 μl of Dulbecco's modified Eagle's medium (DMEM, Invitrogen, California) supplemented with foetal bovine serum (FBS, 10% v/v, Invitrogen), penicillin (1×10^5 IU/l, Sigma, St Louis, Mo., USA) and streptomycin (100 mg/l, Sigma) buffered with NaHCO3 containing phenol red (7.22 nmol/l) as a pH indicator, and incubated overnight at 37° C. with 5% CO2. Medium was replaced with DMEM 10% FBS test medium containing 0, 0.001, 0.003, 0.01, 0.03, 0.1, 0.3, 1, 3 or 10 μg/ml oMSV65 in a semi-random arrangement of eight replicates (n=8) for each test medium. Plates were incubated at 37° C. with 5% CO2 for 72 hours, and then the medium was removed. The wells were washed with 200 μl of phosphate buffered saline (PBS, Oxoid, UK) and fixed with 100 μl of 10% formaldehyde, 0.9% NaCl solution for at least one hour. The fixative was then removed and 100 μl of 1% methylene blue stain in 0.01 M borate buffer (pH 8.5) was added to each well and incubated for 30 min at room temperature. Excess stain was removed by four sequential washes in borate buffer. Methylene blue was eluted from the cells by the addition of 100 μl 1:1 (v/v) ethanol/0.1 HCl. The plates were gently shaken and the absorbance was measured at 655 nm using a microplate photometer (FIGS. 3a and 3b).

Molecule	expression of myostatin (real-time PCR) ([1]; acutely, 6 h from 48 to 54 h)	expression of myostatin (real-time PCR) ([1]; chronically, from seeding to 48 h)	myoblast cell growth (proliferation) (primary ovine myoblasts)
roMSV47: 47 amino acid C-terminal mature ovine MSV fragment (SEQ ID NO: 50), recombinant from E. coli (IIFLEVYIQFCSILGEAVFKRQSKSIHFCQNFKIIACLCNTAAFRMK; Ovis aries)	suppresses the expression of myostatin	suppresses the expression of myostatin	–
B1	–	–	stimulate myoblast cell growth in a dose dependent manner
